In patent publication US8906904B2, “Alkoxy pyrazoles as soluble guanylate cyclase activators” (Boehringer Ingelheim International GmbH, priority 2012, dated 2014):

Assay: human liver microsome (HLM) metabolic stability assay
Type: in vitro ADME
Settings: human liver microsomes; % hepatic blood flow calculated from t1/2
Experimental: The 5 time point, high-throughput human liver microsome (HLM) metabolic stability assay is designed to determine in vitro compound metabolism. Compounds are incubated with HLMs at a concentration of 1 uM, at 37° C., for a total of 60 min. The percent of compound remaining at 5, 15, 30, and 60 min is used to calculate the t½ (min), CLint (mL/min/kg), CLh (mL/min/kg), and % Qh. The assay is based on a 96-well format and can accommodate up to 92 compounds per plate (n=1).
Using the 96-well multi-channel head, the Biomek FX, equipped with a Peltier heating block/shaker, is programmed to accomplish the following steps: • 1. Pipette 175 uL of 1.15 mg/mL microsomes into each of the 96 conical inserts (Analytical Sales and Products, catalog number 96PL05) that fit into the plate of the Peltier heating block/shaker (the incubation plate) • 2. Add 5 uL of compounds from the assay plate to the microsomes and shake the mixture at 600 rpm at 42.1° C. for 10 min (a setting of 42.1° C. on the Peltier is required for the samples to incubate at 37° C.) • 3. After 10 min, prompt the user to add the NADPH plate to the deck and add 20 uL from the NADPH plate to the incubation plate to start the reaction • 4. Add 215 uL of 100%, cold acetonitrile containing an internal standard(s) to a 0 minute, 5 minute, 15 minute, 30 minute, and 60 minute “quench” plate • 5. At 0 min, 5 min, 15 min, 30 min, and 60 min into the incubation, aspirate 12 uL from the incubation mixture and add it to the quench solution to stop the reaction • 6. Add 185 uL HPLC grade water to each well of the 0, 5, 15, 30 and 60 minute quench plates to dilute compounds to the appropriate concentration for the mass spectrometer
After all time points are collected, the quench plates are sealed with 96-well pierceable plate mats or heat sealing foil and centrifuged at 3000 rpm for 15 min to pellet the microsomes.
The plates are analyzed using LC/MS/MS with electron spray ionization (ESI) and the previously determined MRM transitions. The LC method includes the following parameters:
Using an Excel template in Activitybase, the peak areas corresponding to 5, 15, 30 and 60 min are compared to the peak area at 0 min to calculate the percent of remaining compound using the following equation: Percent compound remaining=(AUC at Time t min/AUC at Time 0 min)×100 where t=0, 5, 15, 30 or 60 min.
Time (min) is plotted against the natural logarithm (Ln) of the percent compound remaining to determine the slope. The slope is used to calculate t½ (min) using the equation, t½=0.693/slope.
Preferred compounds have % Qh values of less than 24.

Row | Structure (SMILES) | HLM (% Qh)
1 | CCOc1c(C(=O)O)cnn1-c1cccc(-c2cccc(C)c2OCc2ccc3c(c2F)CCN(C2CCOCC2)C3)n1 [Compound 159] | <24
2 | CCOc1c(C(=O)O)cnn1-c1cccc(-c2cccc(C)c2OCc2cc(C)c3c(c2)CCN(C2CCOCC2)C3)n1 [Compound 169] | <24
3 | COc1c(C(=O)O)cnn1-c1cccc(-c2cccc(C)c2OCc2cc(C)c3c(c2C)CCN(C2CCOCC2)C3)n1 [Compound 120] | <24
4 | COc1c(C(=O)O)cnn1-c1cccc(-c2cccc(C)c2OCc2ccc3c(c2)CCCN(C2CCOCC2)C3)n1 [Compound 100] | 31
5 | CCOc1c(C(=O)O)cnn1-c1cccc(-c2cccc(C)c2OCc2ccc3c(c2C)CCN([C@@H]2CCCOC2)C3)n1 [Compound 128] | <24
6 | COc1c(C(=O)O)cnn1-c1cccc(-c2cccc(C)c2OCc2ccc3c(c2C)CCN(C2COC2)CC3)n1 [Compound 176] | 28
7 | CCOc1c(C(=O)O)cnn1-c1cccc(-c2cccc(C)c2OCc2ccc3c(c2C(F)(F)F)CCN(C2CCOCC2)C3)n1 [Compound 165] | <24
8 | CCOc1c(C(=O)O)cnn1-c1cccc(-c2cccc(C)c2OCc2cc(C)c3c(c2)CCN(C2COC2)C3)n1 [Compound 174] | <24
9 | CCOc1c(C(=O)O)cnn1-c1cccc(-c2cccc(C)c2OCc2ccc3c(c2C)CCN(C[C@H]2CCCOC2)C3)n1 [Compound 153] | <24
10 | COCCOc1c(C(=O)O)cnn1-c1cccc(-c2cccc(C)c2OCc2ccc3c(c2C)CCN(C2CCOCC2)C3)n1 [Compound 151] | <24
11 | CCOc1c(C(=O)O)cnn1-c1cccc(-c2cccc(C)c2OCc2ccc3c(c2C)CCN([C@H]2CCOC2)C3)n1 [Compound 125] | <24
12 | Cc1cccc(-c2cccc(-n3ncc(C(=O)O)c3OC(C)C)n2)c1OCc1ccc2c(c1)CCN([C@H]1CCOC1)C2 [Compound 111] | <24
13 | CCOc1c(C(=O)O)cnn1-c1cccc(-c2cccc(C)c2OCc2ccc3c(c2C)CCN([C@H]2CCCOC2)C3)n1 [Compound 129] | <24
14 | COc1c(C(=O)O)cnn1-c1cccc(-c2cccc(C)c2OCc2ccc3c(c2C)CCN([C@H]2CCOC2)C3)n1 [Compound 105] | <24
15 | CCOc1c(C(=O)O)cnn1-c1cccc(-c2cccc(C)c2OCc2ccc3c(c2C)CN(C2CCOCC2)C3)n1 [Compound 119] | <24
16 | COc1c(C(=O)O)cnn1-c1cccc(-c2ccc(C)cc2OCc2ccc3c(c2)CCN(C2CCOCC2)C3)n1 [Compound 98] | 31
17 | COCCOc1c(C(=O)O)cnn1-c1cccc(-c2cccc(C)c2OCc2ccc3c(c2C)CCN(C2CCOC2)C3)n1 (stereo not drawn) [Compound 150] | <24
18 | CC[C@H](C)Oc1c(C(=O)O)cnn1-c1cccc(-c2cccc(C)c2OCc2ccc3c(c2C)CCN(C2CCOCC2)C3)n1 [Compound 136] | <24
19 | COc1c(C(=O)O)cnn1-c1cccc(-c2cccc(C)c2OCc2cc3c(cc2C)CN(C2CCOCC2)CC3)n1 [Compound 121] | <24
20 | COc1c(C(=O)O)cnn1-c1cccc(-c2cccc(C)c2OCc2ccc3c(c2C)CCN(C2CCOCC2)C3=O)n1 [Compound 167, 5-Methoxy-1-(6-{3-methyl-2-[5-methyl-1-oxo-2-(tetrahydro-pyran-4-yl)-1,2,3,4-tetrahydro-isoquinolin-6-ylmethoxy]-phenyl}-pyridin-2-yl)-1H-pyrazole-4-carboxylic acid] | <24

Results, then the compound that gave them:

Row | HLM (% Qh) | Structure (SMILES)
21 | <24 | COCCOc1c(C(=O)O)cnn1-c1cccc(-c2cccc(C)c2OCc2ccc3c(c2C)CCN(C2CCCOC2)C3)n1 (stereo not drawn) [Compound 149]
22 | <24 | CCOc1c(C(=O)O)cnn1-c1cccc(-c2cccc(C)c2OCc2ccc3c(c2C)CCN(CC2CCOC(C)(C)C2)C3)n1 (stereo not drawn) [Compound 163]
23 | <24 | COc1c(C(=O)O)cnn1-c1cccc(-c2cccc(C)c2OCc2ccc3c(c2)CCN(C(C)C)C3)n1 [Compound 13]
24 | <24 | COc1c(C(=O)O)cnn1-c1cccc(-c2cccc(C)c2OCc2ccc3c(c2F)CCN(C2COC2)C3)n1 [Compound 177]
25 | <24 | CCOc1c(C(=O)O)cnn1-c1cccc(-c2cccc(C)c2OCc2ccc3c(c2C)CCN(CC2CCOCC2)C3)n1 [Compound 172]
26 | <24 | COc1c(C(=O)O)cnn1-c1cccc(-c2cccc(C)c2OCc2cc3c(c(C(F)(F)F)c2)CN(C2CCOCC2)CC3)n1 [Compound 158]
27 | <24 | COc1c(C(=O)O)cnn1-c1cccc(-c2cccc(C)c2OCc2ccc3c(c2C)CCN([C@@H]2CCCOC2)C3)n1 [Compound 140]
28 | <24 | CCOc1c(C(=O)O)cnn1-c1cccc(-c2cccc(C)c2OCc2ccc3c(c2C)CCN(C(=O)C2CCOCC2)C3)n1 [Compound 147, 5-Ethoxy-1-(6-{3-methyl-2-[5-methyl-2-(tetrahydro-pyran-4-carbonyl)-1,2,3,4-tetrahydro-isoquinolin-6-ylmethoxy]-phenyl}-pyridin-2-yl)-1H-pyrazole-4-carboxylic acid]
29 | 30 | COc1c(C(=O)O)cnn1-c1cccc(-c2cccc(C)c2OCc2ccc3c(c2)C(C)(C)CN(C2COC2)C3)n1 [Compound 10]
30 | <24 | CCOc1c(C(=O)O)cnn1-c1cccc(-c2cccc(C)c2OCc2ccc3c(c2)CCN([C@H]2CCOC2)C3)n1 [Compound 110]
31 | <24 | COc1c(C(=O)O)cnn1-c1cccc(-c2cccc(C)c2OCc2ccc3c(c2)CCN([C@H]2CC[C@]4(CCCO4)CC2)C3)n1 [Compound 102]
32 | <24 | CC[C@H](C)Oc1c(C(=O)O)cnn1-c1cccc(-c2cccc(C)c2OCc2ccc3c(c2C)CCN(C2CCOC2)C3)n1 (stereo partly drawn) [Compound 137]
33 | 29 | CC[C@H](C)Oc1c(C(=O)O)cnn1-c1cccc(-c2cccc(C)c2OCc2ccc3c(c2C)CCN(C2CCCOC2)C3)n1 (stereo partly drawn) [Compound 135]
